Patent US5763435A, “Sulfate conjugates of ursodeoxycholic acid, and their beneficial use in inflammatory disorders” (priority 1995, dated 1998)
“Also recorded” adds a separate entry of the source.

Experiments:
[1] = Urinary excretion of UDCA after oral administration; assay type: in vivo, Sprague-Dawley rats
Method: Male Sprague-Dawley rats (Harlan Sprague-Dawley, Inc., Indianapolis, Ind.), weighing 210-290 g, were maintained on a 12-hour light-dark cycle and fed standard laboratory chow ad libitum for 3 days. The animals were then transferred to metabolic cages in which they were housed individually and fed the same diet. UDCA, UDCA 3-sulfate, UDCA 7-sulfate, and UDCA 3,7-disulfate were administered by gavage at a dose of 250 mg/day for 4 consecutive days. Each group comprised 3-6 rats. Body weights of the animals were measured each day. On day 5, the animals were killed by exsanguination under ether anesthesia. Plasma was collected and frozen at -20° C. The liver was removed, rinsed in normal saline, and flash-frozen in liquid nitrogen. Urine and feces were collected every 24 hours and frozen at -20° C. All animals received humane care in compliance with the "Guide for the Care and Use of Laboratory Animals" prepared by the National Academy of Sciences (National Institutes of Health publication no. 86-23, revised in 1985).
In each group, urine from all animals was pooled on the individual days of collection. Day 1 represented the baseline sample, and samples from days 2, 3 and 4 were obtained during bile acid administration. After the addition of nordeoxycholic acid (1 μg), bile acids were quantitatively extracted from portions of urine (3 mL) and plasma (1 mL) using Bond-Elut C18 cartridges. After liquid-solid extraction, isolation and separation of unconjugated and conjugated bile acids were achieved by lipophilic anion-exchange chromatography on Lipidex-DEAP. Solvolysis of bile acid conjugates and isolation of the hydrolyzed products were performed as described above, and bile acids were converted to volatile methyl ester-trimethylsilyl ether derivatives.
GC-MS analysis was performed using a Finnigan 4635 mass spectrometer (Finnigan Inc., San Jose, Calif.) that housed an identical gas chromatography column operated under the same conditions. Electron ionization (70 eV) mass spectra were recorded over the mass range of 50-800 daltons by repetitive scanning of the eluting components. Identification of bile acids was made on the basis of the gas chromatography retention index relative to a homologous series of n-alkanes, referred to as the methylene unit value, and the mass spectrum compared with authentic standards. Quantification of bile acids was achieved using gas chromatography by comparing the peak height response of the individual bile acids with the peak height response obtained from the internal standard.
Liquid secondary ionization mass spectrometry negative ion spectra of urine samples were obtained after placing approximately 1 μL of the methanolic extract onto a small drop of a glycerol/methanol matrix spotted on a stainless steel probe. This probe was introduced into the ion source of a VG Autospec Q mass spectrometer, and a beam of fast atoms of cesium, generated from cesium iodine (35 KeV), was fired at the target containing the sample. Negative ion spectra were obtained over the mass range of 50-1000 daltons.
Data are expressed as mean±SEM or as mean values of all animals when extracts were pooled before analysis. Results from different groups were compared using paired and unpaired two-tailed Student's t-test. P values of <0.05 were considered statistically significant.

[2] = Hepatic biotransformation of infused bile acid (negative ion FAB-MS, conjugate separation); assay type: in vivo, Sprague-Dawley rats; conditions: i.v. infusion
Method: Adult male Sprague-Dawley rats (body weight 200-230 g) were anesthetized by an intraperitoneal injection of pentobarbital (Nembutal, 7.5 mg/100 g body weight), and maintained under sedation by additional doses. The right jugular vein and the common bile duct were cannulated using PE-50 polyethylene tubing (Clay-Adams, Parsippany, N.J.). Body temperature was maintained throughout the experiment at 37° C. using a rectal probe and a thermostatically controlled heating pad (Harvard Apparatus Co., Inc., Millis, Mass.). Saline was infused at a rate of 1.0 ml/h using a Harvard pump (Harvard Apparatus Co., Inc.) into the jugular vein for a control period of 2h. After collecting two 10 minute bile samples for base-line analysis, the bile acids were individually infused intravenously (i.v.) for 30 minutes in stepwise increasing doses (0.5, 1.0, and 2.0 μmol/min/100 g body weight). Bile acid solutions were prepared in 3% human albumin in 0.45% saline. Six animals were used for each experiment and bile was collected every 10 minutes into preweighed tubes. At the end of the experiment, blood was obtained by cardiac puncture, and urine was obtained by aspiration of the bladder. All biological specimens were stored at -20° C. This animal study protocol (#1 B 10044) was approved by the Bioethics committee of the Children's Hospital Medical Center (Cincinnati, Ohio).
Negative ion fast atom bombardment-mass spectrometry (FAB-MS) spectra of bile samples, urine and synthetic compounds were obtained after placing the equivalent of approximately 1 μl of the original bile extract, 10 μl-50 μl of the urine extract and jig quantities of synthetic bile acids dissolved in methanol onto a small drop of a glycerol matrix spotted on a copper target of the FAB probe. This probe was introduced directly into the ion source of the mass spectrometer and a beam of fast atoms of either xenon generated with a saddle field atom gun (ion Tech, Teddington, Middlesex, UK) operated at 8 kV and 20 μA, or cesium generated from cesium iodine (35 kV), was fired at the target containing the sample. Negative ion spectra were obtained over the mass range of 50-1000 Da/e.
For the determination of hepatic biotransformation of the infused bile acid, bile collections from the six animal were pooled and biliary bile acids were determined by GC-MS after extraction, solvolysis, hydrolysis, and derivatization. Quantification of bile acids was achieved using GC, by comparing the peak height response of the individual bile acid with the peak height response obtained from the internal standard, nordeoxycholic acid added to the initial sample of bile. Identification of a bile acid was made on the basis of the retention index relative to a homologous series of n-alkanes, referred to as the methylene unit value (MU) and the fragmentation pattern of the mass spectrum was compared with authentic standards. A list of over 100 mass spectra of authentic bile acid standards and retention indices was recently compiled as a reference source (Lawson, A. M., et al, Mass spectrometry of bile acids, The Bile Acids, Vol. 4, Methods and Applications, pp. 167-267 (1988)).
In the case of the animals infused with UDCA-3S, bile was collected during the final period of bile acid infusion ([…]). Bile acids were solvolyzed and separated into groups based on their mode of conjugation using the lipophilic anion exchange gel, diethylaminohydroxypropyl Sephadex LH-20; Packard Instruments, Groningen, The Netherlands). Bile acid composition was determined in each fraction by GC-MS after hydrolysis and preparation of the Me-TMS ethers.

| SMILES | Urinary excretion of sulfate conjugates of UDCA [1] [nmol/day] | Urinary unconjugated UDCA excretion [1] [nmol/day] | Hepatic biotransformation / form secreted in bile (in words) ([2]; listed as C-3 sulfate of UDCA) | Hepatic biotransformation / form secreted in bile (in words) [2] | Hepatic biotransformation / form secreted in bile (in words) ([2]; listed as UDCA-disulfate) | Hepatic biotransformation / form secreted in bile (in words) ([2]; listed as UDCA-7-sulfate) |
| --- | --- | --- | --- | --- | --- | --- |
| C[C@H](CCC(=O)O)[C@H]1CC[C@H]2[C@@H]3[C@@H](O)C[C@@H]4C[C@H](OS(=O)(=O)O)CC[C@]4(C)[C@H]3CC[C@]12C [UDCA-3S, ursodeoxycholic acid 3-sulfate] | 2.7 | 5.2 | secreted into bile to a limited extent unchanged, but also underwent appreciable amidation with taurine and glycine and further hydroxylation |  |  |  |
| C[C@H](CCC(=O)O)[C@H]1CC[C@H]2[C@@H]3[C@@H](OS(=O)(=O)O)C[C@@H]4C[C@H](OS(=O)(=O)O)CC[C@]4(C)[C@H]3CC[C@]12C [UDCA-DS, ursodeoxycholic acid 3,7-disulfate] | 217.1 | 1.3 |  | No other ions were present to suggest further metabolic transformation; also recorded: not amidated with taurine or glycine | secreted into bile unchanged |  |
| C[C@H](CCC(=O)O)[C@H]1CC[C@H]2[C@@H]3[C@@H](OS(=O)(=O)O)C[C@@H]4C[C@H](O)CC[C@]4(C)[C@H]3CC[C@]12C [UDCA-7S, ursodeoxycholic acid 7-sulfate] | 317.8 | 1.8 |  | No other significant ions were present to indicate further metabolic transformation; also recorded: not amidated with taurine or glycine |  | secreted into bile unchanged |
| C[C@H](CCC(=O)O)[C@H]1CC[C@H]2[C@@H]3[C@@H](O)C[C@@H]4C[C@H](O)CC[C@]4(C)[C@H]3CC[C@]12C [UDCA, 3 alpha, 7 beta-dihydroxy-5 beta-cholan-24oic acid, reference compound] | 4.6 | 642.7 |  | almost exclusively conjugated with taurine and glycine; also recorded: mainly conjugated with taurine, and to a lesser extent was converted to glycine, sulfate and flucuronide conjugates |  |  |
